The test system of series [1] is HCV genotype 1b replicon (GS4.1 cells). In words: HCV replicon assay (NS4A ELISA). The settings on record: 3 days. The format is cell-based, hepatitis C virus. As for the experimental part:
The biological activity of Compound 1, diastereomer 1 and diastereomer 2 was measured by monitoring expression of the NS4A protein by enzyme-linked immunosorbent assay (ELISA) and by luciferase assay as described below:
The HCV replicon assay measures the ability of a test compound to inhibit HCV replication in cell culture after 3 days of treatment in a human hepatoma cell line (Huh-7) bearing the HCV genotype 1b replicon (GS4.1 cells). The inhibition of HCV replication was measured by quantification of viral NS4A protein using an enzyme-linked immunosorbent assay (ELISA). […] Additionally, the replicon contains the neomycin phosphotransferase gene under the control of the HCV promoter (Source: Dr. Christoph Seeger, Fox Chase Cancer Center, Philadelphia, Pa.).
The NS4A ELISA assay is summarized as follows. Ninety-six-well tissue culture plates were seeded with GS4.1 cells. Antiviral compound solutions were made up freshly in medium as 2×-concentrated stocks. Eight additional 3-fold drug dilutions were prepared from these stocks in medium for a total of 9 dilutions. At least four hours after GS4.1 cells were seeded, drug treatment was initiated by adding one volume of each 2× concentrated drug dilution to one volume of cells/medium in the tissue culture plates. Cells were then incubated for 3 days at 37° C./5% CO2.
The media/compound was then removed from the plates and cells were fixed with acetone:methanol, washed three times with a wash solution, and then blocked for 1 hour with 10% fetal bovine serum in a balanced salt solution. Cells were washed three times and incubated with an anti-hepatitis C NS4A monoclonal antibody (Virogen Corp.) for 2 hours at 37° C. […] The reaction was stopped with diluted sulfuric acid (Mallinckrodt Chemicals) and absorbance measured on a Victor^3V 1420 multilabel counter (Perkin Elmer). EC50 values were calculated from dose response curves from the resulting best-fit equations determined by Microsoft Excel and XLfit 4.1 software.
A general note: A replicon is a self-replicating genome or part of one, used to study replication in cells.

Series [2] deals with HCV genotype 1b replicon (Zluc cells). The series can be described thus: HCV luciferase replicon assay. The format is cell-based, hepatitis C virus. The settings on record: 3 days. Here is the method: The HCV luciferase replicon assay measures the ability of a test compound to inhibit HCV replication in cell culture after 3 days of treatment in a human hepatoma cell line (Huh-7) bearing the HCV genotype 1b replicon and a luciferase-neomycin phosphotransferase fusion gene. The inhibition of HCV replication was measured by quantification of luciferase protein expression. The HCV luciferase replicon was constructed by fusing a luciferase gene to the amino terminus of the neomycin phosphotransferase gene of the ZS11 HCV replicon. The ZS11 HCV replicon (Zhu Q, Guo J-T, and Seeger C, 2003) is derived from the SP1 replicon, but contains three cell culture-adapted mutations: E1202G (NS3), S22041 (NS5A), and D2254E (NS5A). These mutations allow for efficient in vitro replication. The luciferase reporter gene was amplified from the pGL4.13[luc2/SV40] vector (Promega Corp.). The replicon resulting from the luciferase-neomycin fusion (ZS11-luc) was stably-transfected into Huh-7 cells, yielding the Zluc cell line.
The luciferase replicon assay is summarized as follows: Solid white 96-well tissue culture plates (BD Falcon) were seeded with Zluc cells. Antiviral compound solutions were made up freshly in medium as 2×-concentrated stocks. Eight additional 3-fold drug dilutions were prepared from these stocks in medium for a total of 9 dilutions. At least four hours after Zluc cells were seeded, drug treatment was initiated by adding one volume of each 2×-concentrated drug dilution to one volume of cells/medium in the tissue culture plates. Cells were then incubated for 3 days at 37° C./5% CO2.
The media/compound was then removed from the plates and the ONE-glo Luciferase assay reagent (Promega) was added to each well. The assay plates were shaken for 3 minutes at room temperature and luciferase activity for each well was measured with a 1 sec read time on the Victor^3V multilabel counter using a 700 nm cut-off filter (Perkin Elmer). EC50 values were calculated from dose response curves from the resulting best-fit equations determined by Microsoft Excel and XLfit 4.1 software.

Another series concerns GS4.1 cells. The series can be described thus: Cytotoxicity assay (MTS), GS4.1 cells. The format is cell-based, human. As to conditions: 3 days (NS4A-ELISA Assay). As for the experimental part: The cytotoxicity assay measures the viability of cells after treatment with a test compound for 3 days in either GS4.1 cells or Zluc cells. […] The cytotoxicity assay is summarized as follows. Ninety-six-well tissue culture plates were seeded with GS4.1 or Zluc cells. Antiviral compound solutions were made up freshly in medium as 2×-concentrated stocks. Eight additional 3-fold drug dilutions were prepared from these stocks in medium for a total of 9 dilutions. At least four hours after the cells were seeded, drug treatment was initiated by adding one volume of each 2×-concentrated drug dilution to one volume of cells/medium in the tissue culture plates. Cells were then incubated for 3 days at 37° C./5% CO2. After 3 days of treatment, the CellTiter 96® Aqueous One Solution cell proliferation assay (Promega) was performed by adding the MTS solution to each well. The plates were then incubated at 37° C./5% CO2 for 3.5 hours. Plates were then read in a Victor^3V 1420 multilabel counter (Perkin Elmer) and CC50 concentrations were determined using Microsoft Excel and XLfit 4.1 software.
(An ELISA detects its analyte on a solid surface through an enzyme-linked reagent.)

A short description of series [3]: Stability in rat liver microsomes. The format is in vitro ADME. As to conditions: rat microsomes 1 mg/mL, 60 min, 50 μM. As for the experimental part: (§1) Disappearance of parent Compound 1 was used to evaluate the in vitro metabolism thereof. Relative levels of unchanged Compound 1 were measured by HPLC-UV method 1. Residual Compound 1 is reported as percent difference from time zero or control. The HPLC-UV system was as follows:
(§2) Incubations with liver microsomes or cytosol were conducted in a final volume of 0.1 mL per incubation time point. […] DMSO (final DMSO concentration was 0.1%) was incubated at 37° C. from 0-60 min with pooled microsomal protein (1.0 mg/mL), suspended in incubation buffer (0.1 M potassium phosphate, pH 7.4, 5 mM MgCl2, and 0.1 mM EDTA). The microsomal reaction was initiated by the addition of NADPH (3 mM final concentration). Incubations with (a) no protein or (b) no NADPH served as controls. Reactions were terminated by the addition of 0.2 mL of stop solution (acetonitrile). The samples were vortex-mixed for 30 sec and then centrifuged at 10,000×g for 10 min. The supernatant was dried using a Labconco CentriVap concentrator and the dry residue reconstituted in water, transferred to an HPLC glass vial and analyzed by HPLC-UV method 1 (described above).
(§3) Metabolic stability of the proposed metabolites was conducted by incubating the chemically synthesized standards Compound 2, Compound 4 and Compound 3 as described above for Compound 1. When possible, formation of Compound 5 was verified by incubating samples with alkaline phosphatase (10 U) for 60 min at 37° C.
(In general: Microsomes from liver hold many membrane-bound enzymes, among them those of drug oxidation.)

Series [4] is described as follows: Stability in monkey liver microsomes. The format is in vitro ADME. The settings on record: monkey microsomes 1 mg/mL, 60 min, 50 μM. Here is the method: as §1, §2, §3
Series [5] is described as follows: Stability in human liver microsomes. As to conditions: human microsomes 1 mg/mL, 60 min, 50 μM. It counts as in vitro ADME. As for the experimental part: as §1
Incubations with liver microsomes or cytosol were conducted in a final volume of 0.1 mL per incubation time point. […] The microsomal reaction was initiated by the addition of NADPH (3 mM final concentration). Incubations with (a) no protein or (b) no NADPH served as controls. Reactions were terminated by the addition of 0.2 mL of stop solution (acetonitrile). The samples were vortex-mixed for 30 sec and then centrifuged at 10,000×g for 10 min. The supernatant was dried using a Labconco CentriVap concentrator and the dry residue reconstituted in water, transferred to an HPLC glass vial and analyzed by HPLC-UV method 1 (described above).
as §3

Series [6] is described as follows: Incubation with rat liver cytosol. It counts as in vitro ADME. The settings on record: rat cytosol 1 mg/mL, 2 hours, 10 μM. As for the experimental part: (§4) Pooled liver cytosol (1.0 mg protein/mL) suspended in incubation buffer (0.1 M potassium phosphate, pH 7.4) was incubated for 2 hours at 37° C. with 10 μM Compound 1 from a stock solution in DMSO (final DMSO concentration was 0.1%); reaction was initiated with the addition of test article. Incubations with no protein served as control. Reactions were terminated by the addition of 0.1 mL of stop solution (acetonitrile). The samples were vortex-mixed for 30 sec and then centrifuged at 10,000×g for 10 min. The supernatant was dried using a Labconco CentriVap concentrator and the dry residue reconstituted in water, transferred to an HPLC glass vial and analyzed by HPLC-UV method 2 (described above).
as §3

Series [7] in a line: Incubation with monkey liver cytosol. It counts as in vitro ADME. As to conditions: monkey cytosol 1 mg/mL, 2 hours, 10 μM. As for the experimental part:
as §4, §3

Series [8] can be described thus: Incubation with human liver cytosol. As to conditions: human cytosol 1 mg/mL, 2 hours, 10 μM. The format is in vitro ADME. Here is the method: as §4, §3
Another series relates to pig liver esterase. In words: Incubation with pig liver esterase. It counts as in vitro ADME. The settings on record: Esterase 14 U, 60 min, 10 μM. Here is the method:
as §4, with “Pig” for “Pooled”, “esterase (14 U)” for “cytosol (1.0 mg protein/mL)”, “60 min” for “2 hours”, “controls.” for “control.”
as §3

Each structure is given as a SMILES string. Some results are limits rather than exact numbers.

Usually EC50 stands for the concentration needed to bring the measured effect to its halfway point. Broadly, the CC50 is the concentration that lowers cell viability or growth by half. On to `CC(C)(CO)C(=O)SCCOP(=O)(NCc1ccccc1)OC[C@H]1O[C@@H](n2cnc3c(=O)[nH]c(N)nc32)[C@](C)(O)[C@@H]1O` (single isomer, unassigned; diastereomer 1) [Diastereomer 1], for which the values for the EC50 in [1] and in series [2] were 704 ± 372 nM and 165 ± 23 nM, respectively. Further, in the series on GS4.1 cells, the CC50 is more than 100000 nM.

In the case of `C[C@@]1(O)[C@H](O)[C@@H](COP(N)(=O)O)O[C@H]1n1cnc2c(=O)[nH]c(N)nc21` [Compound 4, {9-[(2R)2-C-methyl-β-D-ribo-furanosyl]-guanin}-5′-yl phosphoramidate], the “% Residual compound following incubation with liver microsomes” value was 89% in series [3] (NADPH); 100% in [3] (No Cofactor); 83% in series [4] (NADPH); 100% in series [4] (No Cofactor); 93% in series [5] (NADPH); 100% in series [5] (No Cofactor). Moreover, the “Residual compound following incubation with liver cytosol” value in series [6] was determined as 101%; in series [7], 103%; in series [8], 100%. Also, the “Residual compound following incubation with pig liver esterase” value with pig liver esterase turned out to be 100%.

Values taken from US20100003217A1, “Compounds and Pharmaceutical Compositions for the Treatment of Viral Infections” (priority 2008, published 2010).
